Data reported in ChEMBL document CHEMBL1201862, “PubChem BioAssay data set” (2004).
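1) Cells in 96-well plates. 2) Compound, 48 h, 5 concentrations. 3) Linear interpolation between surrounding doses. 4) Unreached endpoint = highest concentration. Abbreviation: GI50, concentration required for 50% inhibition of growth.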 The source made the active and inactive calls. No stated cut-off is given here; in the data, active = GI50 up to about 1.1 µM and inactive = higher.

Columns and labels:
Experiment in all cases: DTP human tumour cell line panel, 48 h
[1] = tested on: HL-60
[2] = tested on: MOLT-4
[3] = tested on: COLO 205
[4] = tested on: MDA-MB-231
[5] = tested on: 786-0
[6] = tested on: MCF7
[7] = tested on: RPMI-8226
[8] = tested on: K562
[9] = tested on: TK-10
[10] = tested on: CAKI-1
[11] = tested on: NCI-H522
[12] = tested on: BT-549
[13] = tested on: SNB-75
[14] = tested on: OVCAR-8
[15] = tested on: DU-145
[16] = tested on: OVCAR-4
[17] = tested on: NCI-H23
[18] = tested on: EKVX
[19] = tested on: SN12C
[20] = tested on: UACC-62
[21] = tested on: Hs-578T
[22] = tested on: HT-29
[23] = tested on: PC-3
[24] = tested on: MDA-MB-435
[25] = tested on: NCI-H226
[26] = tested on: MDA-N
[27] = tested on: T47D
[28] = tested on: NCI-H460
[29] = tested on: U-251
[30] = tested on: HCT-116
[31] = tested on: KM12
[32] = tested on: LOX IMVI
[33] = tested on: HCT-15
[34] = tested on: SW-620
[35] = tested on: UACC-257
[36] = tested on: SK-MEL-28
[37] = tested on: SF-295
[38] = tested on: OVCAR-5
[39] = tested on: SK-MEL-5
[40] = tested on: SNB-19
[41] = tested on: HOP-62
[42] = tested on: SF-268
[43] = tested on: UO-31
[44] = tested on: SR
[45] = tested on: A498
[46] = tested on: OVCAR-3
[47] = tested on: HCC 2998
[48] = tested on: ACHN
[49] = tested on: IGROV-1
[50] = tested on: Malme-3M
[51] = tested on: NCI/ADR-RES
[52] = tested on: SK-MEL-2
[53] = tested on: SF-539
[54] = tested on: M14
[55] = tested on: A549
[56] = tested on: CCRF-CEM
[57] = tested on: SK-OV-3

Measured: GI50

CC(C)=CCOC(=O)C(C)=[N+]=[N-]
inactive: [1] 42.6 µM | [2] 59 µM | [3] > 100 µM | [4] > 100 µM | [5] > 100 µM | [6] > 100 µM | [7] > 100 µM | [8] > 100 µM | [9] > 100 µM | [10] > 100 µM | [11] > 100 µM | [12] > 100 µM | [13] > 100 µM | [14] > 100 µM | [15] > 100 µM | [16] > 100 µM | [17] > 100 µM | [18] > 100 µM | [19] > 100 µM | [20] > 100 µM | [21] > 100 µM | [22] > 100 µM | [23] > 100 µM | [24] > 100 µM | [25] > 100 µM | [26] > 100 µM | [27] > 100 µM | [28] > 100 µM | [29] > 100 µM | [30] > 100 µM | [31] > 100 µM | [32] > 100 µM | [34] > 100 µM | [35] > 100 µM | [36] > 100 µM | [37] > 100 µM | [38] > 100 µM | [39] > 100 µM | [40] > 100 µM | [41] > 100 µM | [42] > 100 µM | [43] > 100 µM | [44] > 100 µM | [45] > 100 µM | [46] > 100 µM | [47] > 100 µM | [48] > 100 µM | [49] > 100 µM | [50] > 100 µM | [51] > 100 µM
> 100 µM: [33]

CCOC(=O)C1(Cc2ccccc2)Cc2cc3c(cc2C1)CCC3
inactive: [1] 23.8 µM | [2] 17.5 µM | [52] 12.8 µM | [3] 19.3 µM | [4] 30.4 µM | [5] 38.1 µM | [6] 23 µM | [7] 20.6 µM | [8] 22.5 µM | [9] 92.7 µM | [10] 39.5 µM | [11] 30.3 µM | [12] 25.2 µM | [13] > 10 µM | [14] 47.3 µM | [15] 44.6 µM | [16] 35.7 µM | [17] 27 µM | [18] 42.8 µM | [53] 39 µM | [19] 33.3 µM | [20] 30.1 µM | [21] 22.3 µM | [22] 18.4 µM | [23] 25.7 µM | [24] 30.2 µM | [25] 25.2 µM | [26] 31.1 µM | [27] 26.7 µM | [28] 31.3 µM | [29] 30.8 µM | [30] 24.3 µM | [54] 29.5 µM | [31] 31.9 µM | [55] 36.8 µM | [32] 18.8 µM | [34] 28.6 µM | [56] 16.5 µM | [35] 40.7 µM | [36] 38.8 µM | [37] 29.4 µM | [38] 25.2 µM | [40] 55.8 µM | [41] 37.2 µM | [57] 35 µM | [42] 52.4 µM | [43] 40.9 µM | [44] 23.9 µM | [45] 49.4 µM | [46] 41.1 µM | [47] 21.4 µM | [48] 38.7 µM | [49] 39 µM | [50] 29.6 µM | [51] 48.1 µM
27.7 µM: [33]
